Test results as given in patent US6737383B1, “Herbicidal oxadiazolidines” (priority 1999, dated 2004).

What was measured:
soybean = assay: Test B pre/postemergence soybean; type: in vivo, Glycine max
Procedure, shortened: (§1)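 Test chemicals in a non-phytotoxic solvent mixture with surfactant were sprayed preemergence onto planted seeds and postemergence onto plants 2 to 18 cm tall (1- to 4-leaf stage). After twelve to sixteen days in a greenhouse, injury was visually rated against untreated controls from 0 (no effect) to 10 (complete control).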

giant foxtail = assay: Test B pre/postemergence giant foxtail; type: in vivo, Setaria faberii
Procedure, shortened: as §1

crabgrass = assay: Test B pre/postemergence crabgrass; type: in vivo, Digitaria sanguinalis
Procedure, shortened: as §1

sugar beet = assay: Test B pre/postemergence sugar beet; type: in vivo, Beta vulgaris
Procedure, shortened: as §1

[1] = Postemergence, Rate 250 g/ha, scale 0 to 10
[2] = Postemergence, Rate 500 g/ha, scale of 0 to 10 where 0 is no effect and 10 is complete control
[3] = Preemergence, Rate 62 g/ha, scale of 0 to 10 where 0 is no effect and 10 is complete control
[4] = Preemergence, Rate 125 g/ha, scale of 0 to 10 where 0 is no effect and 10 is complete control
[5] = Preemergence, Rate 250 g/ha, scale 0 to 10, 0 is no effect, 10 is complete control
[6] = Preemergence, Rate 500 g/ha, scale 0 to 10, 0 is no effect, 10 is complete control
[7] = Rate 62 g/ha, Postemergence, scale 0 to 10 (0 no effect, 10 complete control)
[8] = Rate 125 g/ha, Postemergence, scale 0 to 10, 0 is no effect, 10 is complete control

Compound | Plant response rating, Soybean (soybean; [3]) | Plant response rating, Soybean (soybean; [4]) | Soybean plant response rating (soybean; [5]) | Soybean plant response rating (soybean; [6]) | Soybean plant response rating (soybean; [7]) | Soybean plant response rating (soybean; [8]) | Giant foxtail plant response rating (giant foxtail; [1]) | Giant foxtail plant response rating (giant foxtail; [2]) | Plant response rating, Giant foxtail (giant foxtail; [3]) | Plant response rating, Giant foxtail (giant foxtail; [4]) | Giant foxtail plant response rating (giant foxtail; [5]) | Giant foxtail plant response rating (giant foxtail; [6]) | Giant foxtail plant response rating (giant foxtail; [7]) | Giant foxtail plant response rating (giant foxtail; [8]) | Crabgrass plant response rating (crabgrass; [1]) | Crabgrass plant response rating (crabgrass; [2]) | Plant response rating, Crabgrass (crabgrass; [3]) | Plant response rating, Crabgrass (crabgrass; [4]) | Crabgrass plant response rating (crabgrass; [5]) | Crabgrass plant response rating (crabgrass; [6]) | further results
CCc1nc(C)c(C(C)n2c(=O)on(C(=O)N(c3ccc(F)cc3)C(C)C)c2=O)s1 (stereo not drawn) [Compound 449] | 0 | 0 | 0 | 2 | 0 | 1 | 0 | 3 | 2 | 6 | 8 | 10 | 0 | 0 | 2 | 2 | 0 | 3 | 9 | 9 | Soybean plant response rating (soybean; [1]): 2; Soybean plant response rating (soybean; [2]): 2; Crabgrass plant response rating (crabgrass; [7]): 0; Sugarbeets plant response rating (sugar beet; [1]): 0; Sugarbeets plant response rating (sugar beet; [2]): 3; Plant response rating, Sugarbeets (sugar beet; [3]): 0; Plant response rating, Sugarbeets (sugar beet; [4]): 0; Sugarbeets plant response rating (sugar beet; [5]): 0; Sugarbeets plant response rating (sugar beet; [6]): 0; Sugarbeets plant response rating (sugar beet; [7]): 0; Sugarbeets plant response rating (sugar beet; [8]): 0
CC(C)N(C(=O)n1oc(=O)n(CO)c1=O)c1ccc(Cl)cc1 [Compound 457] | 0 | 0 | 0 | 0 | 0 | 0 | 0 | 0 | 0 | 0 | 0 | 8 | 0 | 0 | 0 | 0 | 0 | 0 | 0 | 0 | Soybean plant response rating (soybean; [1]): 1; Crabgrass plant response rating (crabgrass; [7]): 0; Crabgrass plant response rating (crabgrass; [8]): 0; Sugarbeets plant response rating (sugar beet; [1]): 0; Plant response rating, Sugarbeets (sugar beet; [3]): 0; Plant response rating, Sugarbeets (sugar beet; [4]): 0; Sugarbeets plant response rating (sugar beet; [5]): 0; Sugarbeets plant response rating (sugar beet; [6]): 0; Sugarbeets plant response rating (sugar beet; [7]): 0; Sugarbeets plant response rating (sugar beet; [8]): 0
CC[Si](C)(C)Cn1c(=O)on(C(=O)N(c2ccc(Cl)cc2)C(C)C)c1=O [Compound 460] | 0 | 0 | 0 | 0 | 3 | 3 | 0 | 1 | 0 | 6 | 8 | 9 | 0 | 0 | 9 | 9 | 0 | 1 | 6 | 9 | Soybean plant response rating (soybean; [1]): 4; Crabgrass plant response rating (crabgrass; [7]): 3; Crabgrass plant response rating (crabgrass; [8]): 6; Sugarbeets plant response rating (sugar beet; [1]): 0; Plant response rating, Sugarbeets (sugar beet; [3]): 0; Plant response rating, Sugarbeets (sugar beet; [4]): 0; Sugarbeets plant response rating (sugar beet; [5]): 0; Sugarbeets plant response rating (sugar beet; [6]): 0; Sugarbeets plant response rating (sugar beet; [7]): 0; Sugarbeets plant response rating (sugar beet; [8]): 0
CC(C)N(C(=O)n1oc(=O)n(COC(=O)C(C)(C)C)c1=O)c1ccc(F)cc1 [Compound 462] | 0 | 0 | 0 | 0 | 0 | 1 | 0 | 0 | 0 | 0 | 0 | 0 | 0 | 0 | 0 | 0 | 0 | 0 | 0 | 0 | Crabgrass plant response rating (crabgrass; [7]): 0; Crabgrass plant response rating (crabgrass; [8]): 0; Sugarbeets plant response rating (sugar beet; [1]): 0; Plant response rating, Sugarbeets (sugar beet; [3]): 0; Plant response rating, Sugarbeets (sugar beet; [4]): 0; Sugarbeets plant response rating (sugar beet; [5]): 0; Sugarbeets plant response rating (sugar beet; [6]): 0; Sugarbeets plant response rating (sugar beet; [7]): 0; Sugarbeets plant response rating (sugar beet; [8]): 0
